Measured values published in patent publication US12606571B2, “Macrocyclic compounds and uses thereof” (TURNING POINT THERAPEUTICS, INC., priority 2017, dated 2026).

Legend:
[1] = system: MET phosphorylation and downstream signaling in MKN-45 cells; assay: Immunoblotting for cellular kinase phosphorylation, MKN-45; assay type: cell-based; settings: 16 hour incubation
Experimental: Half a million cells per well were seeded in 24 well plate for 24 hrs, and then treated with compounds for 4 hours. Cells were collected after treatment and lysed in RIPA buffer (50 mM Tris, pH 7.4, 150 mM NaCl, 1% NP-40, 0.5% Deoxycholate, 0.1% SDS) supplemented with 10 mM EDTA, 1× Halt protease and phosphatase inhibitors (Thermo Scientific). […] Membranes were incubated with chemiluminescent substrate for 5 min at room temperature (SuperSignal West Femto, Thermo Scientific). The chemiluminescent images were acquired with a C-DiGit Imaging System (LI-COR Biosciences). The relative density of the chemiluminescent bands were quantified via Image Studio Digits from LICOR. The half inhibitory concentration (IC50) value is calculated using non-linear regression analysis through GraphPad Prism software (GraphPad, Inc., San Diego, CA).

MKN-45 tumors = assay: MKN-45 gastric adenocarcinoma xenograft model; assay type: in vivo, mouse
Experimental: MKN-45 and Ba/F3 ETV6-CSF1R cells were cultured using standard techniques in RPMI-1640 medium (Corning, Inc) with 10% fetal bovine serum (Thermo Fisher Scientific, Inc) at 37° C. in a humidified atmosphere with 5% CO2. For implantation, cells were harvested and pelleted by centrifugation at 250 g for 2 minutes. Cells were washed once and resuspended in serum-free medium supplemented with 50% matrigel (v/v).
Female athymic nude mice (5-8 weeks of age) were obtained from Charles River Laboratory and were housed in Innovive IVC disposable cages on HEPA filtered ventilated racks with ad libitum access to rodent chow and water. Five million cells in 100 μL serum-free medium supplemented with 50% matrigel (Corning, Inc) were implanted subcutaneously in the right flank region of the mouse. Tumor size and body weight were measured on designated days. Tumor size was measured with an electronic caliper and tumor volume was calculated as the product of length*width^2*0.5.
The Met gene amplification in MKN-45 cells underlies the molecular mechanism for tumor growth. Athymic nude mice bearing MKN-45 tumors (at the average tumor size of 210 mm^3) were dosed with Compound 5 orally BID for twelve days (FIG. 7). The control group of mice were given vehicle only. Tumor volume (TMV) was measured by caliper on the indicated days and is shown at mean±sem in FIG. 7. […] Tumor growth inhibition (TGI) was calculated as 100%*{1−[(TMVTreated Last Day of Treatment−TMVTreated First Day of Treatment)/(TMVControl on Last Day of Treatment−TMVControl on First Day of Treatment)]} when TMVTreated Last Day of Treatment≥TMVTreated First Day of Treatment. In the case of TMVTreated Last Day of Treatment<TMVTreated First Day of Treatment., tumor regression (REG) was calculated as 100%*(1−TMVTreated Last Day of Treatment/TMVTreated First Day of Treatment). […] Tumor size was reduced in 5 out 10 mice treated with Compound 5 at 10 mg/kg, BID and in 9 out of 10 mice treated with Compound 5 at 30 mg/kg.

[2] = system: tumor associated immune cells in MC38 tumors; assay: MC38 syngeneic model PD biomarker study (FACS of tumor associated immune cells)
Experimental: MC38 tumors were collected on day 7 and day 11. The collected tumors were dissociated using MiltenyiGentleMax. FACS analysis of tumors were performed for the tumor associated immune cells including tumor associated macrophages (TAM) and TAM subtypes (M1 and M2), myeloid derived suppression cells (MDSC), cytotoxic T lymphocytes (CTL, i.e. CD8+ T cells), CD4+ T cells, and regulatory T cells (Treg).
FACS analysis of tumors were performed on day 7 and day 11 for the tumor associated immune cells including tumor associated macrophages (TAM) and TAM subtypes (MI and M2), myeloid derived suppression cells (MDSC), cytotoxic T lymphocytes (CTL, i.e. CD8+ T cells), CD4+ T cells, and regulatory T cells (Treg).

LU2503 tumors = assay: LU2503 patient derived xenograft (PDX) NSCLC model
Experimental: Primary human tumor xenograft model LU2503 tumors were grown in stock mice. Tumor fragments (2-3 mm in diameter) were harvested from stock mice and inoculated into the right front back of each mouse for tumor development. 16 mice were enrolled in the study. All animals were randomly allocated to the 2 different study groups. Tumor size and body weight were measured on designated days. Tumor size was measured using a caliper and tumor volume was calculated as the product of length*width^2*0.5.

Structure (SMILES): CCN1Cc2c(ccc(F)c2C#N)O[C@@H](C)CNC(=O)c2c(N)nn3ccc1nc23 [Compound 5, (7S)-3-amino-14-ethyl-11-fluoro-7-methyl-4-oxo-4,5,6,7,13,14-hexahydro-1,15-ethenopyrazolo[4,3-f][1,4,8,10]benzoxatriazacyclotridecine-12-carbonitrile]
- phosphorylation of MET and downstream effectors (gel) [1]: inhibited
- tumor growth inhibition (TGI) (MKN-45 tumors; 3 mg/kg, BID, oral, twelve days): 47%
- tumor regression (REG) (MKN-45 tumors; 10 mg/kg, BID, oral, twelve days): 6%
- mice with reduced tumor size (MKN-45 tumors; 30 mg/kg): 9 out of 10
- tumor regression (REG) (MKN-45 tumors; 30 mg/kg, BID, oral, twelve days): 44%
- mean tumor volume (TMV) compared to control group (MKN-45 tumors; treated groups 3, 10, 30 mg/kg BID, p<0.05): significantly lower
- TAM cells vs control ([2]; day 7): trend for a reduction
- populations of TAM, M1, M2, MDSC, CTL, CD4+ T cells, Treg in CD45+ tumor leukocytes vs control ([2]; day 7): no statistically significant changes
- CD4+ T cells or Treg cells vs control ([2]; day 11): no statistically significant change
- CTL cells in the total tumor leukocyte population vs control ([2]; day 11): trend of increase
- CTL in the CD3+ lymphocyte population vs control ([2]; day 11): statistically significant increase
- M1 TAM in the total tumor leukocyte population vs control ([2]; day 11): increase
- M2 TAM in the total tumor leukocyte population vs control ([2]; day 11): decrease
- MDSC populations vs control ([2]; day 11): concurrent increase
- TAM in the total tumor leukocyte population vs control ([2]; day 11): statistically significant decrease
- tumor regression (LU2503 tumors; 15 mg/kg, BID for 13 days): 85%
- body weight (LU2503 tumors; 21 days of BID treatment at 15 mg/kg): No body weight loss
